The nature of one data set: Half-life in vivo. To be noted: irrespective of the dose.
Data set [1] can be described thus: 22-week randomized, double-blind, placebo-controlled clinical trial. It is filed as in vivo, patients. As for the experimental part:
A 22-week randomized, double-blind, placebo-controlled study with a dose titration period of up to 9 weeks was conducted. Sixty-one patients were randomized 2:1 ralinepag to placebo. Right Heart Catheterization (RHC) measurements were obtained prior to study Day 1 of the dose titration period and at Week 22. The following values were obtained and recorded: pulmonary artery pressure (PAP) (systolic, diastolic, and mean), heart rate (HR), right atrial pressure (RAP), pulmonary capillary wedge pressure (PCWP) right ventricular pressure (RVP) and cardiac output (CO), pulmonary vascular resistance (PVR), arterial and mixed venous oxygen saturation (FiO2) (if applicable). Systemic vascular resistance (SVR) was estimated from blood pressure measurements. All patients were receiving background PAH treatment with an endothelin receptor antagonist, phosphodiesterase type-5-inhibitor, or soluble guanylate cyclase activator, alone or in combination.
The primary efficacy endpoint for the study was change from baseline in PVR after 22 weeks of treatment. Additional analyses included change from baseline in 6 MWD after 22 weeks of treatment, hemodynamics, and safety and tolerability. Ralinepag was administered as a capsule in 0.01, 0.02, 0.03, 0.04, and 0.10 mg dose strengths.
The starting dose of ralinepag was 0.01 mg twice daily. The dose of ralinepag was titrated according to patient tolerability. If the initial dose was tolerated (0.01 mg twice daily), then the dose was increased once a week in the following fashion: 0.02 mg twice daily, 0.03 mg twice daily, 0.04 mg twice daily, 0.06 mg twice daily, 0.08 mg, 0.1 mg twice daily, 0.2 mg twice daily and 0.3 mg twice daily. The dose was optionally escalated to a possible maximum total daily dose of 0.6 mg (0.3 mg twice daily), pending tolerability.

Data set [2] concerns human PASMCs from PAH patients. The data set can be described thus: Cell proliferation assay (MTS), serum-induced growth. The class given is cell-based. As for the experimental part:
Primary cell lines of distal PASMCs from PAH patients were derived from explanted lungs as previously described (Falcetti et al., 2010; Bubb et al., 2014). These cells have an abnormal proliferative capacity when grown in culture (Zhang et al., 2007; Falcetti et al., 2010). Frozen cells were revived and grown in human smooth muscle basal medium-2 (SMBM; Lonza, Slough, UK) supplemented with 9% fetal bovine serum (FBS) at 37° C. in a humidified atmosphere of 5% CO2. After reaching confluence, cells were washed with phosphate-buffered saline (PBS) and treated with trypsin-EDTA for further passage. Only cells between passages 3 and 10 were used for experiments.
Comparative concentration-dependent effects of IP receptor agonists on cell proliferation were assessed on human PASMCs derived from PAH patients. Cells were seeded onto 96-well plates at a density of 1×10^4 cells/ml and grown at 37° C. in a humidified CO2 incubator in human smooth muscle basal medium-2 (SMBM; Lonza) containing 9% FBS and penicillin-streptomycin (Pen/Strep; 50 units/ml). After 24 hours, cells were growth arrested by incubating for 48 hours in fresh media containing no added serum. Media was then subsequently removed, replaced with human SMBM containing 9% serum with or without 0.1% DMSO in the absence and presence of the IP receptor agonist (either ralinepag, iloprost, treprostinil or MRE-269) and cells treated with the IP receptor agonist for 4 days over the concentration range ([…]). Responses were directly compared in cells containing the IP receptor antagonist, RO-1138452 (1 μM), which was added to cells 30-60 minutes prior to the addition of the IP agonist and remained throughout the experiment. Cells incubated with no added serum over the same time period (4 days) acted as the time control.
Cell proliferation was obtained using an MTS proliferation kit (Promega), a colorimetric method for determining the number of viable cells which is based on the cleavage of the tetrazolium salt MTS to formazan by cellular mitochondrial dehydrogenases. An increase in cell number leads to a proportional increase in the amount of formazan dye formed which is quantified by measuring the absorbance of the dye solution at 490 nm. In each case background absorbance was corrected by subtracting the average absorbance from the “no cell” control wells from all other absorbance values.
Cell proliferation was then normalized to the growth response induced by FBS alone, which was taken as the FBS response minus the time control (=100% growth at 4 days). Growth responses induced in presence of solvent±drugs is shown as % change in cell proliferation relative to the FBS response alone in all figures.
All data are presented as mean±standard error of mean (S.E.M) of at least 5 observations. Agonist log-concentration curves were constructed and fitted using the non-linear fitting routine in GraphPad Prism 4 or 6 (San Diego, Calif., USA). The concentration of agonist causing 50% of the maximal response (Emax) was expressed as the negative log (pEC50) and the mean EC50 calculated. P values <0.05 are considered statistically significant.

The test system of data set [3] is human PASMCs from PAH patients. The data set can be described thus: Cyclic AMP assay. It is filed as cell-based. As for the experimental part:
Human PASMCs from PAH patients were grown to 70-80% confluence in 12 well plates in DMEM/F12 containing 9% foetal bovine serum (FBS), penicillin (50 U/ml)/streptomycin (50 ag/ml). To assess the time-course of cAMP elevation, cells were stimulated with 100 nM ralinepag for varying times (0.5, 1, 2, 4, 8, 24, 48 hours). This dose of ralinepag was chosen on the basis that it was close to the EC50 for cAMP generation in preliminary experiments. In other experiments, the IP receptor agonist was added for a specified time (60 minutes) over a full concentration range (0.1-10,000 nM) in the absence and presence of […] of the IP receptor antagonist, RO-1138452. The antagonist is added 30 minutes beforehand and remained throughout.
To extract cyclic AMP, the medium was aspirated and PASMCs cells incubated in 0.1 M HCl for 20 minutes on ice followed by centrifugation at 1000 g for 10 minutes at 4° C. The protein concentration in the supernatant was determined using a […] protein assay (BCA, Novagen, EmD Chemicals, CA, USA). Intracellular cyclic AMP was measured using a competitive enzyme immunoassay 96 well plate kit (ADI-900-163, Enzo Life Sciences, Exeter, UK) and the assay performed according to the manufacturer's instructions. Each sample was run in duplicate and data expressed as pmol of cAMP per mg of total protein for each individual sample. Basal levels were subtracted from each agonist concentration data point. Given the large variation (˜15-fold) in cAMP generation from different patient samples, data was also normalized to the peak cyclic AMP response (assigned 100%) in each cell isolate.

Each structure is given as a SMILES string.

What is called inhibition is how much of the control response was suppressed.

For the molecule `O=C(O)COC[C@H]1CC[C@H](COC(=O)N(c2ccccc2)c2ccc(Cl)cc2)CC1` [ralinepag, 2-(((1r,4r)-4-(((4-chlorophenyl)(phenyl)carbamoyloxy)methyl)cyclohexyl)methoxy)acetic acid], the plasma half-life result in the data set “Half-life in vivo” was “relatively long plasma half-life”. Further, the “6-minute walk distance (6MWD)” value in data set [1] (after 22 weeks) is recorded as “numerical improvement”. Moreover, in data set [1] (after 22 weeks, compared to placebo, on background PAH treatment), the “change from baseline in pulmonary vascular resistance (PVR)” value is reported as “statistically significant change from baseline”. In addition, the adverse events entry in data set [1] (human, in vivo) is “consistent with other prostacyclin treatments”. In data set [2] (Homo sapiens, PASMC, 1 nM ralinepag alone), this molecule showed an inhibition at 0.001 µM of 14%. The inhibition at 0.01 µM in data set [2] (Homo sapiens, PASMC, 10 nM ralinepag in the presence of 100 nM bosentan) turned out to be 21%. Moreover, the inhibition at 10 µM in data set [2] (Homo sapiens, PASMC, 10 μM ralinepag alone (highest dose tested)) was 50%. In addition, the inhibition at 0.1 µM in data set [2] (Homo sapiens, PASMC, 96 h, drug alone at 100 nM, compared to FBS and DMSO, 4 days) came to 28%. In addition, the EC50 is 25 nM in data set [2] (Homo sapiens, PASMC, 96 h, ralinepag alone or + 100 nM drug, from individual fits, 9% FBS + 0.1% DMSO, 4 days); 10 nM in data set [2] (Homo sapiens, PASMC, ralinepag in the presence of 100 nM riociguat, individual fits); roughly 100 nM in data set [3] (Homo sapiens, PASMC, preliminary experiments, read-out: EC50 for cAMP generation). In data set [2] (IP receptor antagonist RO-1138452 (1 μM)), the “antiproliferative response in the presence of an IP receptor antagonist” value was “completely inhibited”. Moreover, the “maximal effect compared with treprostinil” value in data set [2] (cell proliferation assay) and in data set [3] (cyclic AMP assay) was “weaker maximal effects” throughout. Further, the “fold lower dose of ralinepag inhibiting cell proliferation” value in data set [2] (combined with 100 nM macitentan vs ralinepag alone) amounted to 10 fold. For the same molecule, the “IP receptor dependence of the effect” value in data set [2] (cyclic AMP and cell proliferation assays in human PASMCs from PAH patients) is on record as “selective IP receptor agonists”. Moreover, the “dose of ralinepag at which significant inhibition of cell growth occurred” value in data set [2] (in the presence of 100 nM riociguat) amounted to 10 pM. Further, in data set [2] (in the presence of 100 nM sildenafil, mean fits (Table 2)), the potency enhancement is 8 fold. Further, the “antiproliferative effect compared to ralinepag alone” value in data set [2] (in the presence of 100 nM treprostinil, entire concentration range, mean data) is reported as “more effective in the presence of treprostinil”. Besides, the “fold more antiproliferation effects than MRE-269” value in data set [2] (ralinepag vs MRE-269) was 10 fold. For the same molecule, the “fold more cyclic AMP than MRE-269” value in data set [3] (ralinepag vs MRE-269) worked out at 2 fold.
